The text below walks through data of US20250215012A1, “IKZF2 DEGRADERS AND USES THEREOF” (REGENTS OF THE UNIVERSITY OF MICHIGAN, priority 2022, published 2025).

Assay [1] concerns the target His tagged CRBN+DDB−DLS7+CXU4 (Homo sapiens (Human), UniProt Q96SW2). Nature of the assay: IC50 Measurements for Binding to CRBN/DDBI (HTRF). To be noted: Cy5-labeled Thalidomide probe, one hour incubation. A general note: TR-FRET usually uses a lanthanide donor and a delayed reading to cut background.
Another assay addresses IKZF2 (Homo sapiens (Human), UniProt Q96SW2+Q9UKS7). Nature of the assay: IKZF2 HiBit Assay (HEK293T Flp-in-HiBiT cells). Format: cell-based. The following applies: HEK293T Flp-in-HiBiT cells, 6 hrs; for DC50: read-out: IKZF2 HiBit degradation DC50; for Dmax: HEK-293T, read-out: IKZF2 HiBit degradation Dmax. How it is done:
The HiBiT protein tagging system was applied to modified HEK293T Flp-in-HiBiT cells (polyclone) via a CRISPR/Cas9—mediated insertion of the HiBiT peptide tag (Promega™) to the N-terminus of the IKZF2 gene locus (Neon™ transfection system). Test and reference compounds are diluted from 1 mM at 3 folds for 11 doses. 25 nL of diluted compound is transferred to assay plates (Corning3570) using ECHO550, the final DMSO concentration @0.1%. The cells are seeded in 3000/[…]/well to compound plates. It is then incubated for 6 hrs in TC incubator. The amount of Nano-Glo® HiBiT lytic reagent needed to perform the desired experiments is calculated. The Nano-Glo® HiBiT lytic reagent is brought to room temperature. The LgBiT protein is diluted to 1:100 and the Nano-Glo® HiBiT lytic substrate is diluted to 1:50 into an appropriate volume of room temperature Nano-Glo® HiBiT lytic buffer. […] of the detection reagent (or without LgBiT) is dispensed to corresponding well according to the layout. The plate is then shaked for 10 mins at room temperature. After briefly centrifuge, the plate is read on Envision. At the indicated timepoints, the Nano-Glo® HiBiT lytic detection system (Promega™) was utilized for detecting bioluminescence of the HiBiT tag in treated cells: abundance of the tag is proportionate to the level of luminescence. Following normalization to DMSO, dose-response curves were plotted (GraphPad Prism) to determine the concentration points at which 50% of HiBiT-Helios degradation was achieved by each compound. The extent of degradation (range of luminescence) from the highest to lowest concentration points was calculated to determine the Dmax.

A further assay addresses IKZF1 (Homo sapiens (Human), UniProt Q13422+Q96SW2). Put plainly: IKZF1 HiBit Assay (HEK293T Flp-in-HiBiT-IKZF1 stable cell line). The class given is cell-based. The following applies: HEK293T Flp-in-HiBiT-IKZF1 cells, 6 hrs; for DC50: read-out: IKZF1 HiBit degradation DC50; for Dmax: HEK-293T, read-out: IKZF1 HiBit degradation Dmax. How it is done: The HiBiT protein tagging system was applied to modified Cells: modified HEK293T Flp-in-HiBiT-IKZF1 stable cell line (polyclone) via a CRISPR/Cas9—mediated insertion of the HiBiT peptide tag (Promega™) to the N-terminus of the IKZF2 gene locus (Neon™ transfection system).
Test compound from 10 mM and reference compound (CC-92480 from 50 mM and I-57 from 10 mM) are diluted at 3 folds for 11 doses. 25 nL of diluted compound is transferred to assay plates (Corning3571) using ECHO550, the final DMSO concentration @0.1%. The cells are seeded in 3000/[…]/well to compound plates. The plates are incubated for 6 hrs in TC incubator. The amount of Nano-Glo® HiBiT lytic reagent needed to perform the desired experiments is calculated. The Nano-Glo® HiBiT lytic reagent is brought to room temperature. The LgBiT protein is diluted to 1:100 and the Nano-Glo® HiBiT lytic substrate is brought to 1:50 into an appropriate volume of room temperature Nano-Glo® HiBiT lytic buffer. […] of the detection reagent (or without LgBiT) is dispensed to corresponding well according to the layout. The plate is shaked for 10 mins at room temperature. After briefly centrifuging, the plate is read on Envision. At the indicated timepoints, the Nano-Glo® HiBiT lytic detection system (Promega™) was utilized for detecting bioluminescence of the HiBiT tag in treated cells: abundance of the tag is proportionate to the level of luminescence. Following normalization to DMSO, dose-response curves were plotted (GraphPad Prism) to determine the concentration points at which 50% of HiBiT-Ikaros degradation was achieved by each compound. The extent of degradation (range of luminescence) from the highest to lowest concentration points was calculated to determine the Dm.
Background: With HiBiT, luminescence reflects the tagged protein that the partner subunit can reach.

Sequence of IKZF1 (Q13422 whole entry): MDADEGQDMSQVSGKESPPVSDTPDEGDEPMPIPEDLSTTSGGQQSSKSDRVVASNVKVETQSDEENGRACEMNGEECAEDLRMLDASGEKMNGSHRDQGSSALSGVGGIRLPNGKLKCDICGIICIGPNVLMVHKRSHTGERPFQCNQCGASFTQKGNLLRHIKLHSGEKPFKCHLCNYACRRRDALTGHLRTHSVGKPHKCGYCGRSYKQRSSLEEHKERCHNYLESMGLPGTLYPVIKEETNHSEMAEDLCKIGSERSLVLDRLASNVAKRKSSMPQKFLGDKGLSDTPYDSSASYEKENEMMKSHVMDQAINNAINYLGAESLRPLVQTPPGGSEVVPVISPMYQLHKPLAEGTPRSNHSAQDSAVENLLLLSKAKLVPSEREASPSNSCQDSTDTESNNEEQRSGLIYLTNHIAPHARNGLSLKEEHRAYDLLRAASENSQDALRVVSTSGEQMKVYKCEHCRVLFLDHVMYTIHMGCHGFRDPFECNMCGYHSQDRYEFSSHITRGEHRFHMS
Sequence of IKZF1 (Q96SW2 whole entry): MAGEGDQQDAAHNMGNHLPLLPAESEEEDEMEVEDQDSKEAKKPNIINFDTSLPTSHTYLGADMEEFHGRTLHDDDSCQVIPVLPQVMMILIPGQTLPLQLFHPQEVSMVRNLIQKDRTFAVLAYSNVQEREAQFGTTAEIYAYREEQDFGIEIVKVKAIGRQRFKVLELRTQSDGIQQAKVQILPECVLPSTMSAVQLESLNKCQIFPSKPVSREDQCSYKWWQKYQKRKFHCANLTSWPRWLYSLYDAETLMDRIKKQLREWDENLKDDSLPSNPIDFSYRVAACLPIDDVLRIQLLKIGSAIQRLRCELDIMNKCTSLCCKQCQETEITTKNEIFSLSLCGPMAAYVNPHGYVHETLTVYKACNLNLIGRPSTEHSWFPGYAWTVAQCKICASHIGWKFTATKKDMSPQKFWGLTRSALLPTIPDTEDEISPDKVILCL
Sequence of IKZF1 (Q16531 whole entry partner): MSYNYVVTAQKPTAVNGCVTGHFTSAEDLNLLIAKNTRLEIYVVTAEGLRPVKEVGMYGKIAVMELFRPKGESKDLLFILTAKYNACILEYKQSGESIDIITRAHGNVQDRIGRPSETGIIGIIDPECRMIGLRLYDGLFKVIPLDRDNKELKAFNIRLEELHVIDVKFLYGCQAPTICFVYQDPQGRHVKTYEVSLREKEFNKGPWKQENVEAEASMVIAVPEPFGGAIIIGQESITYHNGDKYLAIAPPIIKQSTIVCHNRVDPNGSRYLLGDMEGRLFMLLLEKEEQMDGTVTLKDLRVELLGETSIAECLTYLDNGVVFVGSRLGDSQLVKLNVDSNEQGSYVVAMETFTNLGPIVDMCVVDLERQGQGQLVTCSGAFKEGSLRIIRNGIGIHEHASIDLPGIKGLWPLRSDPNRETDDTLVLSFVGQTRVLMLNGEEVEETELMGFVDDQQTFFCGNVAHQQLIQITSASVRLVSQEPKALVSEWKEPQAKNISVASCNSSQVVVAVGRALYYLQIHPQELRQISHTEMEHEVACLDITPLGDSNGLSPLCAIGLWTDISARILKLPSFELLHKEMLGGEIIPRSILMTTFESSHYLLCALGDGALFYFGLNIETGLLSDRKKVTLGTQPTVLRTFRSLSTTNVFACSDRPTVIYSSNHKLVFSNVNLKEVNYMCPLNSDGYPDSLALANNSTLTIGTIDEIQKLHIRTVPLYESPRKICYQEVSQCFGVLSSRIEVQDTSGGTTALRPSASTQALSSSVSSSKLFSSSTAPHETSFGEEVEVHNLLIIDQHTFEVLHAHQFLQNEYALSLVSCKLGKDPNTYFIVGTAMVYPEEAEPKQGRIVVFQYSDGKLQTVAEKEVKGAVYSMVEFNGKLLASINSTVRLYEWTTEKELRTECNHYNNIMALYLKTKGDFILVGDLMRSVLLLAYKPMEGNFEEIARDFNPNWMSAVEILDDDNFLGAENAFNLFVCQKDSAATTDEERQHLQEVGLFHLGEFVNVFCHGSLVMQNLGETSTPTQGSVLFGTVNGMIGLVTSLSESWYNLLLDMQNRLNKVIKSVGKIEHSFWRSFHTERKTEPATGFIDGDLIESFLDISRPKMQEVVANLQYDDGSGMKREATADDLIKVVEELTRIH
Sequence of His tagged CRBN+DDB−DLS7+CXU4 (Q96SW2 whole entry): as the sequence (Q96SW2 whole entry) above
Sequence of His tagged CRBN+DDB−DLS7+CXU4 (Q16531 whole entry partner): as the sequence (Q16531 whole entry partner) above
Sequence of IKZF2 (Q9UKS7 whole entry): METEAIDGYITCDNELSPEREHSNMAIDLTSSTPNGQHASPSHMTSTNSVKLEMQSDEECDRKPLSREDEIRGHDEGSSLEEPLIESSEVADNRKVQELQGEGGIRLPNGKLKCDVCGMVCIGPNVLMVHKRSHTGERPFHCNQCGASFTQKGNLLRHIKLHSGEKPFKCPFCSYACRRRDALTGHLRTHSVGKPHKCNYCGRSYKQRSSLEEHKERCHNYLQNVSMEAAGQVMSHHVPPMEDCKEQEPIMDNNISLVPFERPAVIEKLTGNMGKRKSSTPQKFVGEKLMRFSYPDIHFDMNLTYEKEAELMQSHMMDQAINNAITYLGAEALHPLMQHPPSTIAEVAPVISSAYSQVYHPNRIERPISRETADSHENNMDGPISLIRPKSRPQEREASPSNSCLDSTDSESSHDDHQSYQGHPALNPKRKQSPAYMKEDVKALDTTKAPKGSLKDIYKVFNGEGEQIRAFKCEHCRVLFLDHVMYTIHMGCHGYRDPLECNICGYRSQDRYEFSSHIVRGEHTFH
Sequence of IKZF2 (Q96SW2 whole entry): as the sequence (Q96SW2 whole entry) above
Sequence of IKZF2 (Q16531 whole entry partner): as the sequence (Q16531 whole entry partner) above

Turning to `Cc1cc2c(c3c1C(=O)N([C@H]1CCC(=O)NC1=O)C3)OCC21CCN(Cc2cccc(-c3cnn(C)c3)c2)CC1` [Compound B20, (S)-3-(5-methyl-1′-(3-(1-methyl-1H-pyrazol-4-yl)benzyl)-6-oxo-6,8-dihydro-2H,7H-spiro[furo[2,3-e]isoindole-3,4′-piperidin]-7-yl)piperidine-2,6-dione], in assay [1], the IC50 (usually the concentration at which inhibition is half-maximal) was 500 to 1000 nM. The half-maximal degradation concentration (DC50) on IKZF2 and at IKZF1 was over 1000 nM throughout. Moreover, the Dmax (commonly the greatest extent of degradation seen) on IKZF2 was 20 to 40%; at IKZF1, under 20%.

The molecule `[2H]C1([2H])Oc2c(ccc3c2CN(C2CCC(=O)NC2=O)C3=O)C12CCN(Cc1cccc(-c3cnn(C)c3)c1)CC2` (centres unmarked) [Compound B13, 3-(1′-(3-(1-methyl-1H-pyrazol-4-yl)benzyl)-6-oxo-6,8-dihydro-2H,7H spiro[furo[2,3-e]isoindole-3,4′-piperidin]-7-yl-2,2-d2)piperidine-2,6-dione] returned an IC50 in assay [1] of 100 to 500 nM. At IKZF2, the DC50 (in general, the concentration giving 50% degradation) is 1 to 10 nM and the Dmax lay in the range of 60 to 80%. On IKZF1, the DC50 is over 1000 nM and the Dmax was under 20%.

With `Cn1cc2c(CN3CCC4(COc5c4ccc4c5CN([C@H]5CCC(=O)NC5=O)C4=O)C(F)(F)C3)cccc2n1` (stereo partly drawn) [Compound B42, (3S)-3-(3′,3′-difluoro-1′-((2-methyl-2H-indazol-4-yl)methyl)-6-oxo-6,8-dihydro-2H,7H-spiro[furo[2,3-e]isoindole-3,4′-piperidin]-7-yl)piperidine-2,6-dione], the IC50 in assay [1] was 100 to 500 nM. On IKZF2, the half-maximal degradation concentration (DC50) fell in the range of 1 to 10 nM and the Dmax is 60 to 80%. For the same molecule, at IKZF1, the DC50 is over 1000 nM and the greatest degradation seen (Dmax) was under 20%.

In assay [1], `O=C1CC[C@H](N2Cc3c(ccc4c3OCC43CCN(Cc4ccc5[nH]ncc5c4)CC3(F)F)C2=O)C(=O)N1` (stereo partly drawn) [Compound B40, (3S)-3-(1′-((1H-indazol-5-yl)methyl)-3′,3′-difluoro-6-oxo-6,8-dihydro-2H,7H-spiro[furo[2,3-e]isoindole-3,4′-piperidin]7-yl) piperidine-2,6-dione] yielded an IC50 of 100 to 500 nM. The values for the DC50 on IKZF2 and at IKZF1 were 1 to 10 nM and over 1000 nM, respectively. Moreover, the values for the Dmax at IKZF2 and on IKZF1 were 60 to 80% and under 20%, respectively.

In turn, `Cn1cc(-c2cccc(CN3CCC4(COc5c4ccc4c5CN([C@H]5CCC(=O)NC5=O)C4=O)C(F)(F)C3)c2)cn1` (stereo partly drawn) [Compound B39, (3S)-3-(3′,3′-difluoro-1′-(3-(1-methyl-1H-pyrazol-4-yl)benzyl)-6-oxo-6,8-dihydro-2H,7H-spiro[furo[2,3-e]isoindole-3,4′-piperidin]-7-yl) piperidine-2,6-dione] displayed an IC50 in assay [1] of 100 to 500 nM. Besides, the DC50 was under 1 nM on IKZF2 and over 1000 nM on IKZF1. The Dmax on IKZF2 is 60 to 80%; on IKZF1 it was under 20%.

`Cn1cc(-c2cccc(CN3CC[C@@]4(COc5c4ccc4c5CN([C@H]5CCC(=O)NC5=O)C4=O)C(F)(F)C3)c2)cn1` [Compound B52, (S)-3-((R)-3′,3′-difluoro-1′-(3-(1-methyl-1H-pyrazol-4-yl)benzyl)-6-oxo-6,8-dihydro-2H,7H-spiro[furo[2,3-e]isoindole-3,4′-piperidin]-7-yl)piperidine-2,6-dione]: the IC50 in assay [1] was in the range of 100 to 500 nM. Further, the DC50 on IKZF2 was 1 to 10 nM; at IKZF1, over 1000 nM. For the same molecule, the Dmax is 40 to 60% at IKZF2 and under 20% at IKZF1.

Consider `[2H]C([2H])([2H])n1cc(-c2cccc(CN3CCC4(CC3)COc3c4ccc4c3CN([C@H]3CCC(=O)NC3=O)C4=O)c2)cn1` [Compound B12, (S)-3-(1′-(3-(1-(methyl-d3)-1H-pyrazol-4-yl)benzyl)-6-oxo-6,8-dihydro-2H,7H-spiro[furo[2,3-e]isoindole-3,4′-piperidin]-7-yl)piperidine-2,6-dione], for which the IC50 in assay [1] is 100 to 500 nM. On IKZF2, the DC50 lay in the range of 1 to 10 nM and the Dmax is over 80%. On IKZF1, the DC50 was over 1000 nM and the Dmax is under 20%.

For the molecule `[2H]C([2H])(c1ccc2cn(C)nc2c1)N1CCC2(CC1)COc1c2ccc2c1CN([C@H]1CCC(=O)NC1=O)C2=O` [Compound B7, (S)-3-(1′-((2-methyl-2H-indazol-6-yl)methyl-d2)-6-oxo-6,8-dihydro-2H,7H-spiro[furo[2,3-e]isoindole-3,4′-piperidin]-7-yl)piperidine-2,6-dione], the IC50 in assay [1] is 100 to 500 nM. Further, the results for the DC50 at IKZF2 and at IKZF1 were 1 to 10 nM and over 1000 nM, respectively. The Dmax on IKZF2 was 60 to 80%; at IKZF1, under 20%.

Consider `O=C1CC[C@H](N2Cc3c(ccc4c3OCC43CCN(Cc4cc(-c5ccc(Cl)cc5)no4)CC3)C2=O)C(=O)N1` [Compound B2, (S)-3-(1′-((3-(4-chlorophenyl)isoxazol-5-yl)methyl)-6-oxo-6,8-dihydro-2H,7H-spiro[furo[2,3-e]isoindole-3,4′-piperidin]-7-yl)piperidine-2,6-dione], for which the IC50 in assay [1] lay in the range of 1000 to 5000 nM. Besides, at IKZF2, the DC50 lay in the range of 1 to 10 nM and the maximal degradation (Dmax) fell in the range of 60 to 80%. Further, on IKZF1, the half-maximal degradation concentration (DC50) is 10 to 100 nM and the greatest degradation seen (Dmax) is 20 to 40%.

In assay [1], `Cn1cc2cc(CN3CCC4(COc5c4ccc4c5CN([C@H]5CCC(=O)NC5=O)C4=O)C(F)(F)C3)ccc2n1` (stereo partly drawn) [Compound B37, (3S)-3-(3′,3′-difluoro-1′-((2-methyl-2H-indazol-5-yl)methyl)-6-oxo-6,8-dihydro-2H,7H-spiro[furo[2,3-e]isoindole-3,4′-piperidin]-7-yl)piperidine-2,6-dione] had an IC50 of under 100 nM. At IKZF2, the DC50 was in the range of 1 to 10 nM and the maximal degradation (Dmax) is 60 to 80%. For the same molecule, at IKZF1, the DC50 is over 1000 nM and the Dmax was under 20%.

`Cn1cc(-c2cccc(CN3CCC4(CC3)COc3c4cc(F)c4c3CN([C@H]3CCC(=O)NC3=O)C4=O)c2)cn1` [Compound B16, (S)-3-(5-fluoro-1′-(3-(1-methyl-1H-pyrazol-4-yl)benzyl)-6-oxo-6,8-dihydro-2H,7H-spiro[furo[2,3-e]isoindole-3,4′-piperidin]-7-yl)piperidine-2,6-dione] registered a half-maximal inhibitory concentration (IC50) in assay [1] of 100 to 500 nM. For the same molecule, at IKZF2, the DC50 lay within 1 to 10 nM and the Dmax lay within 40 to 60%. Moreover, at IKZF1, the DC50 is over 1000 nM and the maximal degradation (Dmax) is under 20%.

The molecule “(3S)-3-(3′,3′-difluoro-1′-((1-methyl-1H-indazol-6-yl)methyl)-3-oxo-1,3,7,8-tetrahydro-2H-spiro[cyclopenta[e]isoindole-6,4′-piperidin]-2-yl)piperidine-2,6-dione [Compound B34]” had an IC50 in assay [1] of 100 to 500 nM. At IKZF2, the “IKZF2 HiBit degradation Dmax” value was “B (B: 60-80%)” and the DC50 was in the range of 1 to 10 nM. Besides, on IKZF1, the “IKZF1 HiBit degradation Dmax” value is “C (C: <20%)” and the DC50 was over 1000 nM.

Take `[2H]C([2H])(c1cccc(-c2cnn(C([2H])([2H])[2H])c2)c1)N1CCC2(CC1)COc1c2ccc2c1CN([C@H]1CCC(=O)NC1=O)C2=O` [Compound B9, (S)-3-(1′-((3-(1-(methyl-d3)-1H-pyrazol-4-yl)phenyl)methyl-d2)-6-oxo-6,8-dihydro-2H,7H-spiro[furo[2,3-e]isoindole-3,4′-piperidin]-7-yl)piperidine-2,6-dione]: the concentration for half-maximal inhibition (IC50) in assay [1] was under 100 nM. Besides, the DC50 on IKZF2 is 1 to 10 nM; at IKZF1 it was over 1000 nM. Also, the Dmax was 60 to 80% on IKZF2 and under 20% at IKZF1.
